{
  "source": "paper PMC6748665",
  "about": "(Journal of Medicinal Chemistry, 2019)",
  "target": "T1, MtbTrmD (Mycobacterium tuberculosis, UniProt P9WFY7)",
  "T1 sequence (P9WFY7 1-230)": "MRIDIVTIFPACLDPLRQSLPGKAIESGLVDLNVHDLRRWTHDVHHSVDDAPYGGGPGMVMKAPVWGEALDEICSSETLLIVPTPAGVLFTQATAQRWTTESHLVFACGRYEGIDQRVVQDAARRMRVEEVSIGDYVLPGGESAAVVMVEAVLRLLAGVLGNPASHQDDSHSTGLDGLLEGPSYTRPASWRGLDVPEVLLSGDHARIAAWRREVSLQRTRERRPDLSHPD",
  "test": "Surface plasmon resonance",
  "assay_type": "binding",
  "conditions": "SPR",
  "data": [
    {"smiles": "CCCCCCCCNCc1ccc(CNC(=O)c2csc3nc[nH]c(=O)c23)cc1", "note": "[Compound 15, N-(4-((Octylamino)methyl)benzyl)-4-oxo-3,4-dihydrothieno[2,3-d]pyrimidine-5-carboxamide]", "values": [
      {"measurement": "lower affinity for MtbTrmD compared to the PaTrmD binding affinity", "value": "over 100 fold"}
    ]}
  ]
}
